Measurements reported in the NIST ThermoML archive (doi:10.1021/je400122k).
± gives the expanded uncertainty stated by the source.

Settings: Liquid; for speed of sound: Pulse-echo method; for mass density: Vibrating tube method

`CCCCCCCCCCCCCC(=O)OCC` [ethyl tetradecanoate] showed a speed of sound (293.15 K, 100 kPa) of 1360.6 ± 5.6 m/s, a mass density (293.15 K, 101.3 kPa) of 861 ± 1 kg/m3 and a speed of sound (293.15 K, 10000 kPa) of 1408 ± 5.8 m/s. The mass density (293.15 K, 10000 kPa) was 867.5 ± 1 kg/m3, the speed of sound (293.15 K, 20000 kPa) was 1453.3 ± 6 m/s and the mass density (293.15 K, 20000 kPa) was 873.2 ± 1.1 kg/m3. For the same compound, the speed of sound (293.15 K, 30000 kPa) was 1494.5 ± 6.1 m/s, the mass density (293.15 K, 30000 kPa) was 878.7 ± 1.1 kg/m3 and the speed of sound (293.15 K, 40000 kPa) was 1533.5 ± 6.3 m/s. It also gave a mass density (293.15 K, 40000 kPa) of 883.8 ± 1.1 kg/m3, a speed of sound (293.15 K, 50000 kPa) of 1568.2 ± 6.4 m/s and a mass density (293.15 K, 50000 kPa) of 888.7 ± 1.1 kg/m3. It also gave a mass density (293.15 K, 60000 kPa) of 893.6 ± 1.1 kg/m3, a speed of sound (303.15 K, 100 kPa) of 1321.8 ± 5.5 m/s and a mass density (303.15 K, 101.3 kPa) of 853.3 ± 1 kg/m3. The speed of sound (303.15 K, 10000 kPa) was 1370.9 ± 5.7 m/s, the mass density (303.15 K, 10000 kPa) was 860.2 ± 1 kg/m3 and the speed of sound (303.15 K, 20000 kPa) was 1416.8 ± 5.8 m/s. For the same compound, the mass density (303.15 K, 20000 kPa) was 866.2 ± 1.1 kg/m3, the speed of sound (303.15 K, 30000 kPa) was 1460.6 ± 6 m/s and the mass density (303.15 K, 30000 kPa) was 871.9 ± 1.1 kg/m3. It also gave a speed of sound (303.15 K, 40000 kPa) of 1500.8 ± 6.2 m/s, a mass density (303.15 K, 40000 kPa) of 877.3 ± 1.1 kg/m3 and a speed of sound (303.15 K, 50000 kPa) of 1539.9 ± 6.3 m/s. For the same compound, the mass density (303.15 K, 50000 kPa) was 882.2 ± 1.1 kg/m3, the mass density (303.15 K, 60000 kPa) was 887 ± 1.1 kg/m3 and the mass density (303.15 K, 70000 kPa) was 891.7 ± 1.1 kg/m3. For the same compound, the mass density (303.15 K, 80000 kPa) was 896 ± 1.1 kg/m3, the mass density (303.15 K, 90000 kPa) was 900.3 ± 1.1 kg/m3 and the mass density (303.15 K, 100000 kPa) was 904.4 ± 1.1 kg/m3. It also gave a mass density (313.15 K, 101.3 kPa) of 845.6 ± 1 kg/m3, a mass density (313.15 K, 10000 kPa) of 852.7 ± 1 kg/m3 and a mass density (313.15 K, 20000 kPa) of 859 ± 1.1 kg/m3. It also gave a mass density (313.15 K, 30000 kPa) of 864.9 ± 1.1 kg/m3, a mass density (313.15 K, 40000 kPa) of 870.5 ± 1.1 kg/m3 and a mass density (313.15 K, 50000 kPa) of 875.7 ± 1.1 kg/m3. It also gave a mass density (313.15 K, 60000 kPa) of 880.8 ± 1.1 kg/m3, a mass density (313.15 K, 70000 kPa) of 885.5 ± 1.1 kg/m3 and a mass density (313.15 K, 80000 kPa) of 890.8 ± 1.1 kg/m3. It also gave a mass density (313.15 K, 90000 kPa) of 894.9 ± 1.1 kg/m3, a mass density (313.15 K, 100000 kPa) of 899.1 ± 1.2 kg/m3 and a speed of sound (323.15 K, 100 kPa) of 1251.8 ± 5.2 m/s. The mass density (323.15 K, 101.3 kPa) was 838.5 ± 1 kg/m3, the speed of sound (323.15 K, 10000 kPa) was 1304.5 ± 5.4 m/s and the mass density (323.15 K, 10000 kPa) was 845.4 ± 1 kg/m3. The speed of sound (323.15 K, 20000 kPa) was 1353.4 ± 5.6 m/s, the mass density (323.15 K, 20000 kPa) was 852 ± 1.1 kg/m3 and the speed of sound (323.15 K, 30000 kPa) was 1398.6 ± 5.8 m/s. For the same compound, the mass density (323.15 K, 30000 kPa) was 858.2 ± 1.1 kg/m3, the speed of sound (323.15 K, 40000 kPa) was 1441.1 ± 5.9 m/s and the mass density (323.15 K, 40000 kPa) was 863.9 ± 1.1 kg/m3. It also gave a speed of sound (323.15 K, 50000 kPa) of 1482.4 ± 6.1 m/s, a mass density (323.15 K, 50000 kPa) of 869.2 ± 1.1 kg/m3 and a speed of sound (323.15 K, 60000 kPa) of 1519.7 ± 6.2 m/s. It also gave a mass density (323.15 K, 60000 kPa) of 874.7 ± 1.1 kg/m3, a speed of sound (323.15 K, 70000 kPa) of 1555.8 ± 6.4 m/s and a mass density (323.15 K, 70000 kPa) of 879.8 ± 1.1 kg/m3. It also gave a speed of sound (323.15 K, 80000 kPa) of 1590.8 ± 6.5 m/s, a mass density (323.15 K, 80000 kPa) of 884.5 ± 1.1 kg/m3 and a speed of sound (323.15 K, 90000 kPa) of 1624.6 ± 6.6 m/s. For the same compound, the mass density (323.15 K, 90000 kPa) was 888.9 ± 1.2 kg/m3, the speed of sound (323.15 K, 100000 kPa) was 1655.7 ± 6.8 m/s and the mass density (323.15 K, 100000 kPa) was 893.1 ± 1.2 kg/m3. The mass density (333.15 K, 101.3 kPa) was 830.6 ± 1 kg/m3, the mass density (333.15 K, 10000 kPa) was 838 ± 1 kg/m3 and the mass density (333.15 K, 20000 kPa) was 844.9 ± 1.1 kg/m3. For the same compound, the mass density (333.15 K, 30000 kPa) was 851.3 ± 1.1 kg/m3, the mass density (333.15 K, 40000 kPa) was 857.2 ± 1.1 kg/m3 and the mass density (333.15 K, 50000 kPa) was 862.9 ± 1.1 kg/m3. For the same compound, the mass density (333.15 K, 60000 kPa) was 868.2 ± 1.1 kg/m3, the mass density (333.15 K, 70000 kPa) was 874 ± 1.1 kg/m3 and the mass density (333.15 K, 80000 kPa) was 878 ± 1.2 kg/m3. The mass density (333.15 K, 90000 kPa) was 883.4 ± 1.2 kg/m3, the mass density (333.15 K, 100000 kPa) was 888 ± 1.2 kg/m3 and the speed of sound (343.15 K, 100 kPa) was 1184.7 ± 4.9 m/s. For the same compound, the mass density (343.15 K, 101.3 kPa) was 823.2 ± 1 kg/m3, the speed of sound (343.15 K, 10000 kPa) was 1241.3 ± 5.1 m/s and the mass density (343.15 K, 10000 kPa) was 831.1 ± 1 kg/m3. It also gave a speed of sound (343.15 K, 20000 kPa) of 1293 ± 5.3 m/s, a mass density (343.15 K, 20000 kPa) of 838.6 ± 1.1 kg/m3 and a speed of sound (343.15 K, 30000 kPa) of 1341.9 ± 5.5 m/s. The mass density (343.15 K, 30000 kPa) was 845.2 ± 1.1 kg/m3, the speed of sound (343.15 K, 40000 kPa) was 1386.7 ± 5.7 m/s and the mass density (343.15 K, 40000 kPa) was 851.3 ± 1.1 kg/m3. It also gave a speed of sound (343.15 K, 50000 kPa) of 1428.8 ± 5.9 m/s, a mass density (343.15 K, 50000 kPa) of 857.1 ± 1.1 kg/m3 and a speed of sound (343.15 K, 60000 kPa) of 1468.1 ± 6 m/s. The mass density (343.15 K, 60000 kPa) was 862.5 ± 1.1 kg/m3, the speed of sound (343.15 K, 70000 kPa) was 1506.4 ± 6.2 m/s and the mass density (343.15 K, 70000 kPa) was 867.7 ± 1.1 kg/m3. For the same compound, the speed of sound (343.15 K, 80000 kPa) was 1541.9 ± 6.3 m/s and the mass density (343.15 K, 80000 kPa) was 872.8 ± 1.2 kg/m3.
